{"source": "paper PMC7070897", "about": "(Molecules, 2020)", "key": {"[1]": {"test": "on-resin Ugi-4CR macrocyclisation (stapling), Lys side-chain amine (i) to Asp/Glu side-chain acid (i+4): 1) paraformaldehyde 4 eq, pyrrolidine 4 eq, THF/MeOH 1:1, 30 min (imine); 2) isocyanide R-NC 4 eq, DCM/TFE 1:1, overnight; then TFA/TIS/H2O cleavage", "conditions": "the molecule shown is the open-chain precursor, 18.0 h, 3 steps"}, "[2]": {"system": "Phytophthora infestans (Mont.) de Bary"}, "[3]": {"conditions": "read-out: IC50 in μM, Phythophtora Infestants, Figures 1B and 2C, 96-well plate, OD 405 nm seven days after inoculation, triplicate, IC50 from dose-response curves by linear regression"}, "[4]": {"conditions": "read-out: Half maximal inhibitory concentration, Phytophthora Infestans"}, "[5]": {"conditions": "read-out: Half maximal inhibitory concentration, Septoria Tritici"}, "[6]": {"conditions": "read-out: Half maximal inhibitory concentration, Botrytis Cinerea"}}, "note": "Where “and” joins values, the source holds several entries; their conditions need not be identical. Equal values may be shown once. Read-outs that look alike come from different tables or passages of the source. Positions of bridges follow the written chain, without caps; N, C: chain ends. Residues, ends and D or L forms follow the SMILES beside them.", "data": [{"compound": "C=NCCCC[C@H](NC(=O)[C@H](C)NC(=O)[C@H](CCCCNC(=O)OC(C)(C)C)NC(=O)[C@H](CC(C)C)NC(=O)[C@H](CC(C)C)NC(=O)[C@H](CCCCNC(=O)OC(C)(C)C)NC(=O)[C@H](C)NC(=O)[C@H](CC(C)C)NC(C)=O)C(=O)N[C@@H](C)C(=O)N[C@@H](CCCCNC(=O)OC(C)(C)C)C(=O)N[C@@H](C)C(=O)N[C@@H](CC(=O)O)C(N)=O", "values": [{"measurement": "ring closure, conversion by HPLC (% crude UHPLC purity after cleavage)", "setting": "[1]; 20-membered ring", "value": "63 and 54"}]}, {"compound": "C=NCCCC[C@H](NC(=O)[C@H](CCCCNC(=O)OC(C)(C)C)NC(=O)[C@H](CC(C)C)NC(C)=O)C(=O)N[C@@H](CC(C)C)C(=O)N[C@@H](CC(C)C)C(=O)N[C@@H](CCCCNC(=O)OC(C)(C)C)C(=O)N[C@@H](CCC(=O)O)C(=O)N[C@@H](CC(C)C)C(=O)N[C@@H](CC(C)C)C(=O)N[C@@H](CCCCNC(=O)OC(C)(C)C)C(=O)N[C@@H](CCCCNC(=O)OC(C)(C)C)C(=O)N[C@@H](CC(C)C)C(N)=O", "values": [{"measurement": "ring closure, conversion by HPLC (% crude UHPLC purity after cleavage)", "setting": "[1]; 21-membered ring", "value": 68}]}, {"compound": "CC(=O)N[C@@H](CC(C)C)C(=O)N[C@@H](CCCCN)C(=O)N[C@@H](CCCCN)C(=O)N[C@@H](CC(C)C)C(=O)N[C@@H](CC(C)C)C(=O)N[C@@H](CCCCN)C(=O)N[C@@H](CCCCN)C(=O)N[C@H]1CCCCNC(=O)CC[C@@H](C(N)=O)NC(=O)[C@H](CCCCN)NC(=O)[C@H](CCCCN)NC(=O)[C@H](CC(C)C)NC1=O", "note": "[Peptide 6, Ac-(cyclo-8,12))-[LKKLLKKKLKKE]-NH2] (Ac-LKKLLKKKLKKE-NH2; lactam 8-12)", "values": [{"measurement": "IC50", "setting": "[2]; [3]", "value": 18, "unit": "µM"}, {"measurement": "IC50", "setting": "Septoria tritici Desm.", "value": 16.6, "unit": "µM"}, {"measurement": "IC50", "setting": "Botrytis cinerea Pers.", "value": "> 50", "unit": "µM"}]}, {"compound": "Ac-(N-(2-(n-butylamino)-2-oxoethyl)-(cyclo-8,12))-[LAKLLKAKAKAD]-NH2 (sidechain bridge or staple) [Peptide 2]", "values": [{"measurement": "IC50", "setting": "[2]; [4]", "value": 26.2, "unit": "µM"}, {"measurement": "IC50", "setting": "Septoria tritici Desm.; [5]", "value": "> 50", "unit": "µM"}, {"measurement": "IC50", "setting": "Botrytis cinerea Pers.; [6]", "value": "> 50", "unit": "µM"}]}, {"compound": "Ac-(N-(2-(n-dodecylamino)-2-oxoethyl)-(cyclo-8,12))-[LAKLLKAKAKAD]-NH2 (sidechain bridge or staple) [Peptide 3]", "values": [{"measurement": "IC50", "setting": "[2]; [4]", "value": 14.3, "unit": "µM"}, {"measurement": "IC50", "setting": "Septoria tritici Desm.; [5]", "value": 5.9, "unit": "µM"}, {"measurement": "IC50", "setting": "Botrytis cinerea Pers.; [6]", "value": 9.8, "unit": "µM"}]}, {"compound": "Ac-(cyclo-8,12))-[LAKLLKAKAKAD]-NH2 (sidechain bridge or staple) [Peptide 4]", "values": [{"measurement": "IC50", "setting": "[2]; [4]", "value": 20.9, "unit": "µM"}, {"measurement": "IC50", "setting": "Septoria tritici Desm.; [5]", "value": "> 50", "unit": "µM"}, {"measurement": "IC50", "setting": "Botrytis cinerea Pers.; [6]", "value": "> 50", "unit": "µM"}]}, {"compound": "Ac-LAKLLKAKAKAD-NH2 [Peptide 1]", "values": [{"measurement": "IC50", "setting": "[2]; [4]", "value": "> 50", "unit": "µM"}, {"measurement": "IC50", "setting": "Septoria tritici Desm.; [5]", "value": "> 50", "unit": "µM"}, {"measurement": "IC50", "setting": "Botrytis cinerea Pers.; [6]", "value": "> 50", "unit": "µM"}]}, {"compound": "Ac-LKKLLKKLLKKL-NH2 [Peptide 5, Ac-LKKLLKKLLKKL]", "values": [{"measurement": "IC50", "setting": "[2]; [3]", "value": 5.4, "unit": "µM"}, {"measurement": "IC50", "setting": "Septoria tritici Desm.", "value": 4.5, "unit": "µM"}, {"measurement": "IC50", "setting": "Botrytis cinerea Pers.", "value": "> 50", "unit": "µM"}]}]}
